Experimental data taken from PubChem BioAssay (NCI).
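The compound was tested at five concentrations on cells cultured in 96-well plates, with a 48-hour exposure period. TGI marks complete inhibition of growth.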

What was measured:
Test in all cases: NCI anticancer screen, dose series, 48 h
[1] = tested on: A498 renal
[2] = tested on: MOLT-4 leukemia
[3] = tested on: OVCAR-8 ovarian
[4] = tested on: CAKI-1 renal
[5] = tested on: EKVX NSCLC
[6] = tested on: KM12 colon
[7] = tested on: SNB-19 CNS
[8] = tested on: KM20L2 colon
[9] = tested on: LOX IMVI melanoma
[10] = tested on: SK-MEL-2 melanoma
[11] = tested on: COLO 205 colon
[12] = tested on: K-562 leukemia
[13] = tested on: CCRF-CEM leukemia
[14] = tested on: SK-OV-3 ovarian
[15] = tested on: HCT-116 colon
[16] = tested on: NCI-H226 lung
[17] = tested on: M19-MEL melanoma
[18] = tested on: ACHN renal
[19] = tested on: HOP-18 NSCLC
[20] = tested on: DMS 273 small cell lung
[21] = tested on: SK-MEL-28 melanoma
[22] = tested on: XF 498 CNS
[23] = tested on: OVCAR-5 ovarian
[24] = tested on: NCI-H460 lung
[25] = tested on: IGROV1 ovarian
[26] = tested on: SW-620 colon
[27] = tested on: TK-10 renal
[28] = tested on: HT29 colon
[29] = tested on: HCC-2998 colon
[30] = tested on: HCT-15 colon
[31] = tested on: UO-31 renal
[32] = tested on: SF-295 CNS
[33] = tested on: HOP-62 NSCLC
[34] = tested on: RXF 393 renal
[35] = tested on: 786-0 renal
[36] = tested on: NCI-H522 lung
[37] = tested on: SN12C renal
[38] = tested on: M14 melanoma
[39] = tested on: DLD-1 colon
[40] = tested on: UACC-62 melanoma
[41] = tested on: HOP-92 NSCLC
[42] = tested on: SK-MEL-5 melanoma
[43] = tested on: SNB-75 CNS
[44] = tested on: SF-539 CNS
[45] = tested on: A549 NSCLC
[46] = tested on: OVCAR-3 ovarian
[47] = tested on: MALME-3M melanoma
[48] = tested on: RXF-631 renal
[49] = tested on: U251 CNS
[50] = tested on: NCI-H23 lung
[51] = tested on: HL-60(TB) leukemia
[52] = tested on: RPMI-8226 leukemia
[53] = tested on: LXFL 529 NSCLC
[54] = tested on: SF-268 CNS
[55] = tested on: OVCAR-4 ovarian
[56] = tested on: SR leukemia
[57] = tested on: UACC-257 melanoma
[58] = tested on: SNB-78 CNS
[59] = tested on: DMS 114 small cell lung

CCN(CC)CCSc1c2ccccc2nc2cc(NCC(=O)Nc3ccccc3-c3ccccc3NC(=O)CNc3ccc4c(SCCN(CC)CC)c5ccccc5nc4c3)ccc12
TGI [1]: > 100 µM
TGI [2]: > 76.9 µM
TGI [3]: > 100 µM
TGI [4]: > 100 µM
TGI [5]: > 100 µM
TGI [6]: > 100 µM
TGI [7]: > 100 µM
TGI [8]: > 100 µM
TGI [9]: > 100 µM
TGI [10]: > 100 µM
TGI [11]: > 55.3 µM
TGI [12]: > 73.5 µM
TGI [13]: 96.9 µM
TGI [14]: > 100 µM
TGI [15]: > 100 µM
TGI [16]: > 100 µM
TGI [17]: > 54.7 µM
TGI [18]: > 100 µM
TGI [19]: > 100 µM
TGI [20]: > 58.3 µM
TGI [21]: > 100 µM
TGI [22]: > 100 µM
TGI [23]: > 100 µM
TGI [24]: > 100 µM
TGI [25]: > 100 µM
TGI [26]: > 100 µM
TGI [27]: > 100 µM
TGI [28]: > 100 µM
TGI [29]: > 100 µM
TGI [30]: > 100 µM
TGI [31]: > 100 µM
TGI [32]: > 100 µM
TGI [33]: > 100 µM
TGI [34]: > 100 µM
TGI [35]: > 100 µM
TGI [36]: > 100 µM
TGI [37]: > 100 µM
TGI [38]: > 100 µM
TGI [39]: > 100 µM
TGI [40]: > 100 µM
TGI [41]: > 100 µM
TGI [42]: > 100 µM
TGI [43]: > 100 µM
TGI [44]: > 100 µM
TGI [45]: > 100 µM
TGI [46]: > 100 µM
TGI [47]: > 100 µM
TGI [48]: > 100 µM
TGI [49]: > 100 µM
TGI [50]: > 100 µM
TGI [51]: 49.3 µM
TGI [52]: > 100 µM
TGI [53]: > 100 µM
TGI [54]: > 100 µM
TGI [55]: > 100 µM
TGI [56]: > 100 µM
TGI [57]: > 100 µM

COc1cc2ccnc([C@@H](OC(=O)c3ccccc3)c3ccc(OC)c(OC)c3OC)c2cc1OC
TGI [1]: > 100 µM
TGI [2]: > 100 µM
TGI [3]: > 100 µM
TGI [4]: > 100 µM
TGI [5]: > 100 µM
TGI [6]: > 100 µM
TGI [7]: > 100 µM
TGI [8]: > 100 µM
TGI [9]: > 100 µM
TGI [10]: > 100 µM
TGI [11]: > 100 µM
TGI [12]: > 100 µM
TGI [13]: > 100 µM
TGI [14]: > 100 µM
TGI [15]: > 100 µM
TGI [16]: > 100 µM
TGI [17]: > 100 µM
TGI [18]: > 100 µM
TGI [19]: > 100 µM
TGI [21]: > 100 µM
TGI [23]: > 100 µM
TGI [24]: > 100 µM
TGI [25]: > 100 µM
TGI [26]: > 100 µM
TGI [27]: > 100 µM
TGI [28]: > 100 µM
TGI [29]: > 100 µM
TGI [30]: > 100 µM
TGI [31]: 76.3 µM
TGI [32]: > 100 µM
TGI [34]: > 100 µM
TGI [35]: > 100 µM
TGI [58]: > 100 µM
TGI [36]: > 100 µM
TGI [59]: > 100 µM
TGI [37]: > 100 µM
TGI [38]: > 100 µM
TGI [39]: 80.2 µM
TGI [40]: > 100 µM
TGI [41]: > 100 µM
TGI [42]: 56.6 µM
TGI [43]: > 100 µM
TGI [44]: > 100 µM
TGI [45]: > 100 µM
TGI [46]: > 100 µM
TGI [47]: 99.8 µM
TGI [48]: > 100 µM
TGI [49]: > 100 µM
TGI [50]: > 100 µM
TGI [51]: > 100 µM
TGI [52]: > 100 µM
TGI [53]: > 100 µM
TGI [54]: > 100 µM
TGI [55]: > 100 µM
TGI [57]: > 100 µM
